Reference: PubChem BioAssay AID624254 (Broad Institute, 2012)
Calls of active or inactive are those of the source. No rule for the calls is given here.

assay: Luciferase light induction in v cholerae bh1651, agonist dose response, confirmatory (AID 624254); settings: V. cholerae BH1651 luxOD47E, luciferase light induction, 6 h; at 50 µM (top of the series)

SMILES | activation (light increase)
C[C@H]1CN([C@@H](C)CO)C(=O)c2cccc(NC(=O)C3CC3)c2O[C@H]1CN(C)S(=O)(=O)c1cccs1 | inactive
c1ccc(-c2ccc(CN3Cc4ccccc4-n4nncc4C3)cc2)cc1 | inactive
CCc1ccc(OCCNC(=O)c2ccco2)cc1 | inactive
COC(=O)Nc1ccc(S(=O)(=O)NCCO)cc1 | inactive
COc1ccc(C(=O)COC(=O)CNC(=O)c2ccc(Cl)cc2Cl)c(OC)c1 | inactive
COc1ccc(CNC(=O)CSc2nc3c(oc4ccccc43)c(=O)n2CC2CCCO2)cc1 (centres undefined) | inactive
CCCCNC(=O)c1ccccc1NC(=O)CCSc1ccccc1 | inactive
CCOC(=O)N1CCN(C(=S)NCCOC)CC1 | inactive
Cc1nn2cnnc2c(C)c1Cc1c(F)cccc1Cl | inactive
CCOc1ccc(CNc2nnnn2C)cc1 | inactive
CCC1Nc2ncnc(N3CCN(c4ccccc4)CC3)c2N(Cc2ccccc2)C1=O (centres undefined) | inactive
NS(=O)(=O)c1cc(C(=O)OCC(=O)NC2CCCCCCC2)ccc1Cl | inactive
O=C(CN1C(=O)COc2ccccc21)c1ccc(Cl)cc1 | inactive
Cc1cc2oc(=O)cc(CN3CCC(C)CC3)c2cc1Cl | inactive
CCSc1nnc(NC(=O)c2ccc3ccccc3n2)s1 | inactive
O=C(OC1CCN(c2ncc(C(F)(F)F)cc2Cl)CC1)c1ccc(Cl)cc1 | inactive
Oc1ccc(-c2cn3c(n2)SCC3)cc1 | inactive
COc1cc(NC(=O)c2ccccc2)c(OC)cc1NC(=O)CN1C(=O)N(C)C2(CCCCC2)C1=O | inactive
O=C(NCCOc1ccc(Cl)cc1)c1ccco1 | inactive
CC(=O)c1ccc(Oc2cc(C)nc(NCc3ccccc3)n2)cc1 | inactive
NC(=O)c1cc(Br)cc(C2CCCCC2)c1O | inactive
CCN(CC(=O)Nc1ccccc1C(F)(F)F)C(=O)CN1C(=O)NC(C)(c2ccc3ccccc3c2)C1=O (centres undefined) | inactive
Cc1cc(N2CCC(C)CC2)nc2ccc(N3C(=O)CCC3=O)cc12 | inactive

SMILES | activation (light increase)
O=C(CC1NC(=O)NC1=O)Nc1ccc(Cl)cc1 (centres undefined) | inactive
CCOc1ccc(S(=O)(=O)N(CCO)CCO)cc1-c1nc2c(C(C)(C)C)nn(C)c2c(=O)[nH]1 | inactive
CC(=O)Nc1ccc2nc(-c3cccnc3)[nH]c2c1 | inactive
CCOc1ccc(Nc2ccc3nonc3c2[N+](=O)[O-])cc1 | inactive
Clc1ccc(-c2cc(COc3ccc4ccccc4c3)no2)cc1 | inactive
COc1ccc(CCNC(=O)c2ccc(Cl)cc2Cl)cc1 | inactive
COc1ccc(N(CC(=O)NC2CCCCC2)C(=O)CNC(=O)c2ccco2)c(OC)c1 | inactive
CCCOC(=O)c1ccc(NC(=O)CCC(=O)OCC)cc1 | inactive
Cc1nc2ccc(C(=O)OCC(=O)N(C)c3ccccc3)cc2nc1C | inactive
CC(=O)C(CC(=O)N1CCCc2ccccc21)C(=O)Nc1ccc(F)cc1 (centres undefined) | inactive
CC(=O)Nc1ccc(Nc2nc(C)nc3c2oc2ccccc23)cc1 | inactive
COCCCNC(=O)c1ccc2c(=O)n(C3CCCC3)c(=S)[nH]c2c1 | inactive
CC(OC(=O)c1ccc(-n2cnnn2)cc1)C(=O)N(C)c1ccccc1 (centres undefined) | inactive
COCCn1nnnc1CN1CCC(NC(=O)Nc2cccc(OC)c2)CC1 | inactive
Cc1ccc(C)c(N(C(=O)Cn2nnc(-c3cccs3)n2)C(C(=O)NC2CC2)c2ccc(C)o2)c1 (centres undefined) | inactive
CC1(NC(=O)C23CC4CC(CC(C4)C2)C3)CCS(=O)(=O)C1 (centres undefined) | inactive
COc1ccc2c(c1OC)C(=O)N(c1nccs1)C2 | inactive
CN(c1ccccc1)S(=O)(=O)c1nnc(NC(=O)C2CCCCC2)s1 | inactive
Cc1ccccc1C(=O)Nc1ccc(-c2nc3ccc(C(=O)c4ccccc4)cc3[nH]2)cc1 | inactive
COc1ccc(-c2nnc3c4ccccc4c(C)nn23)cc1 | inactive
COc1cc(NC(=O)Cc2cccs2)ccc1-n1cnnn1 | inactive
CC(=O)c1cc2c(cc1NC(=O)Cc1c(C)noc1C)OCO2 | inactive
Cc1cc(COc2ccccc2O)on1 | inactive

SMILES | activation (light increase)
C[C@@H]1CN([C@H](C)CO)C(=O)c2cccc(NC(=O)Nc3ccc4c(c3)OCO4)c2O[C@H]1CN(C)S(=O)(=O)c1ccccc1 | inactive
Cc1ccc(OCCNC(=O)c2cccc(C)c2)cc1 | inactive
CCOC(=O)N1CCC(NC(=O)C2CCN(C(=O)N3CC(C)Oc4ccc(C)cc43)CC2)CC1 (centres undefined) | inactive
Cc1cc(C)c(S(=O)(=O)Nc2ccccn2)c(C)c1 | inactive
COC(=O)c1cc(Br)ccc1OC(=O)c1cccnc1 | inactive
COC(=O)Cn1nc(-c2ccccc2)c2ccccc21 | inactive
COCCNc1nc2c(c(=O)n(Cc3ccc(OC)cc3)c(=O)n2C)n1C | inactive
CCC(=O)NCCc1nc(-c2ccccc2)no1 | inactive
Cn1cccc1C(=O)OCc1cc(-c2ccco2)on1 | inactive
CCc1ccc(C(=O)Nc2ccc(Br)cn2)cc1 | inactive
COc1cc(C2N(c3ccccn3)C(=O)C3CCCN32)cc(OC)c1OC (centres undefined) | inactive
COc1ccc(OCc2nnc3n2N=C(c2ccc(OC)cc2)CS3)cc1 | inactive
CCOc1ccc(/C(O)=C2/C(=O)C(=O)N(CCOCCO)C2c2ccccn2)cc1 (centres undefined) | inactive
Cc1csc(NC(=O)Cc2nn(C)c(=O)c3ccccc23)n1 | inactive
O=S(=O)(Nc1ccccn1)c1ccc(Oc2ccccc2)cc1 | inactive
Cc1onc(-c2ccccc2)c1C(=O)N1CCOCC1 | inactive
COc1ccc(N2CCN(CC(=O)Nc3c(C)cc(C)cc3C)CC2)cc1 | inactive
CCS(=O)(=O)Nc1ccc(C(=O)OC)cc1 | inactive
Cc1ccc(N(C(C)C(=O)N2CCCCC2)S(C)(=O)=O)cc1C (centres undefined) | inactive
CCCCNC(=O)CN(c1cccc(Br)c1)S(C)(=O)=O | inactive
CC(C)CCOc1cccc(OCC(=O)N(C)C2CCS(=O)(=O)C2)c1 (centres undefined) | inactive
Cc1cc(Cl)ccc1OCC(=O)OCC(=O)NC1CCS(=O)(=O)C1 (centres undefined) | inactive
Cc1noc(C)c1NC(=O)Nc1cccc2c1O[C@@H](CN(C)S(=O)(=O)c1cccs1)[C@H](C)CN([C@@H](C)CO)C2=O | inactive

SMILES | activation (light increase)
Cc1cc(C)c(S(C)(=O)=O)c(Oc2ccc(C(C)(C)C)cc2)n1 | inactive
CN(Cc1nc2ccccc2n1C)C(=O)c1ccco1 | inactive
CC1CCCN(C(=O)Cn2c(-c3nonc3N)nc3ccccc32)C1 (centres undefined) | inactive
Cc1ccc(C)n1-c1sc2c(c1C#N)CCC(C)C2 (centres undefined) | inactive
COc1c(C)cccc1C(=O)Nc1ccc(OCC(=O)N2CCOCC2)cc1C | inactive
COc1ccc(Cl)cc1NC(=O)CN1CCc2ccccc2C1 | inactive
CCc1ccc(-c2ccc(C(=O)O)n2CC)cc1 | inactive
Cn1cnc(S(=O)(=O)Nc2ccccc2F)c1 | inactive
CCn1nnnc1SCC(=O)c1ccc2c(c1)OCCO2 | inactive
Cc1cc(C(F)(F)F)c2c(N)c(C(=O)NC3CC3)sc2n1 | inactive
COCCSc1ccccc1C(=O)Nc1nnc(COC)s1 | inactive
Cc1cc(C(C)(C)C)oc1C(=O)OCC(=O)NC1CCCCC1 | inactive
COc1ccc(OC)c(NC(=O)COC(=O)c2cc3c(s2)CCC3)c1 | inactive
Cc1cccc(N2CCN(C(=O)C34CC5CC(CC(C5)C3)C4)CC2)c1C | inactive
COc1ccccc1NC(=O)COC(=O)c1ccc2c(c1)OCCO2 | inactive
Cc1ccc(NC(=S)NCCc2c[nH]c3ccccc23)cc1 | inactive
Cc1ccc(Oc2nccc(-c3ccc(Cl)cc3)n2)cc1 | inactive
CCC(C)NC(=O)Cc1ccc(-c2ccccc2)cc1 (centres undefined) | inactive
Cc1ncc(S(=O)(=O)c2ccccc2)c(-c2ccc(Cl)cc2Cl)n1 | inactive
COC(C(=O)Nc1ccccc1C(=O)N1CCOCC1)c1ccccc1 (centres undefined) | inactive
